Patent publication US20050239780A1, “Tetrahydropyran derivative” (priority 2002, published 2005)
Read-outs that look alike come from different tables or passages of the source.

Tests used:
[1] = test system: plasma lipid in KK-Ay mice; test: Pharmacological test in KK-Ay mice; type: in vivo, male KK-Ay mice; conditions: oral once a day for 7 days, relative to control group
Experimental: The influence of test compounds on plasma lipid in vivo was investigated with KK-Ay mice. A 0.5% methyl cellulose suspension containing a test compound was forcedly orally administered to male KK-Ay mice once a day for continuos 7 days. After the final administration, the mice were fed with nothing, and after 6 hours, their blood was collected under anesthetization with diethyl ether. Using the automatic analyzer, Hitachi's Model 7250, the total cholesterol, HDL cholesterol and triglyceride in plasma were measured. Non-HDL cholesterol was obtained by subtracting HDL cholesterol from total cholesterol. The plasma lipid lowering effect of the test compound was expressed in percentage relative to the control group.

[2] = test system: apo B-related lipoprotein secretion in Hep G2 cells; test: Measurement of apo B-related lipoprotein secretion in liver cells (Hep G2, enzyme immunoassay); type: cell-based, human; conditions: culture supernatant
Experimental: 1. Measurement of Apo B-Related Lipoprotein Secretion in Liver Cells
Hep G2 cells were cultured in a 96-well plate using a 10% fetal bovine serum-containing Dulbecco's modified Eagle's medium (to be referred to as “10% FBS-containing DMEM” hereinafter). The medium was exchanged with a 10% FBS-containing DMEM that contained a DMSO solution of the test compound (DMSO final concentration 0.1%), and the cells were further incubated therein for 18 hours to obtain the culture supernatant. The culture supernatant obtained from a 10% FBS-containing DMEM that contained DMSO alone (final concentration 0.1%) was used as the control. The apo B-related lipoprotein produced in the culture supernatant was determined through an enzyme immunoassay in the manner mentioned below.
A solution of anti-human apolipoprotein B monoclonal antibody (4 μg/ml) was dispensed in 100 μl portions into a 96-well immunoassay plate and kept at 4° C. for 18 hours. Each well was washed three times with a phosphate buffer to which had been added 0.1% Tween 20 (to be referred to as “PBS-T” hereinafter), and 300 μl of a 4-fold diluted immune blocker “Block Ace” was added thereto and kept at 37° C. for 1 hour. The aforementioned culture supernatant was added to it, and kept at 37° C. for 3 hours. This was washed three times with PBS-T, and then 100 μl of a solution of caprine anti-human apolipoprotein B polyclonal antibody (2,000-fold dilution) was added to it and kept at 37° C. for 1 hour. This was washed three times with PBS-T, and then 100 μl of a solution of alkaline phosphatase-labeled anti-caprine IgG antibody (2,000-fold dilution) was added thereto and kept at 37° C. for 1 hour. This was washed four times with PBS-T, once with PBS and then with a carbonate buffer (pH 9.5), and 100 μl of a solution of an alkaline phosphatase substrate was added thereto and kept at room temperature for 5 minutes. A 50 μl portion of 0.2 M sodium hydroxide was added to it to stop the reaction, and the absorbance at 405 nm was measured. From the calibration curve based on a standard, human low-density lipoprotein, the absolute amount of apo B-related lipoprotein was obtained.

[3] = test system: VLDL secretion in vivo in rats; test: Measurement of blood cholesterol and triglyceride in rats (VLDL secretion, Triton WR-1339); conditions: male SD rats, oral, Triton WR-1339 400 mg/kg i.v. after 1 hour, blood after 4 hours; for ED50: Rattus norvegicus
Experimental: 2. Measurement of Blood Cholesterol and Triglyceride in Rats
The influence of test compounds on VLDL secretion in vivo in rats was investigated. A 0.5% methyl cellulose suspension containing a test compound was orally administered to male SD rats. After 1 hour, a physiological saline solution of Triton WR-1339 (corresponding to 400 mg/kg) was injected through the caudal vein. After 4 hours, their blood was collected under anesthetization with diethyl ether. The total cholesterol and triglyceride in blood were measured by the use of “Cholesterol C Test Wako” and “Triglyceride G Test Wako” (both from Wako Pure Chemical Industries), respectively. The rats orally administered with the 0.5% methyl cellulose solution and then intravenously injected with physiological saline were used as a normal group, and those orally administered with the 0.5% methyl cellulose solution and then intravenously injected with physiological saline of Triton WR-1339 were used as a control group. The difference in the total cholesterol (TC) or triglyceride (TG) in the serum between the control group and the normal group was defined as the amount of secretion per hour, and the lowering effect in the amount of secretion of the test compound was represented by ED50.

[4] = test system: plasma lipid in high-cholesterol feed-loaded rats; test: Pharmacological test on high-cholesterol feed-loaded rats; type: in vivo; conditions: high-cholesterol feed-loaded male SD rats, oral once a day for 7 days, relative to control group; for ED50: Rattus norvegicus, 168 h, read-out: ED50 non-HDL cholesterol lowering effect
Experimental: 3. Pharmacological Test on High-Cholesterol Feed-Loaded Rats
The influence of test compounds on plasma lipid in vivo was investigated with high-cholesterol feed-loaded rats. A 0.5% methyl cellulose suspension containing a test compound was forcedly orally administered to male SD rats loaded with high-cholesterol feed (1.5% cholesterol, 10% coconut oil, 0.5% cholic acid), once a day for continuous 7 days. After the final administration, the rats were fed with nothing, and after 6 hours, their blood was collected under anesthetization with diethyl ether. Using an automatic analyzer, Hitachi's Model 7250, the total cholesterol, HDL cholesterol and triglyceride in plasma were measured. Non-HDL cholesterol was obtained by subtracting HDL cholesterol from total cholesterol. The non-HDL cholesterol lowering effect of the test compound, relative to the control group, was represented by ED50.

[5] = Homo sapiens, HepG2, 18 hours incubation
[6] = read-out: ED50 TC (total cholesterol secretion lowering effect)
[7] = read-out: ED50 TG (triglyceride secretion lowering effect)

IC50 [2, 5]	Structure (SMILES)	Lowering rate TG ([1]; dose 3 mg/kg)	Lowering rate non-HDL ([1]; dose 3 mg/kg)	ED50 [3, 6]	ED50 [3, 7]	ED50 non-HDL cholesterol lowering effect [4]	ED50 TC (total cholesterol secretion lowering effect) [3]	ED50 TG (triglyceride secretion lowering effect) [3]	IC50 ([2]; 18 hours incubation)	ED50 [4]	Lowering rate TG ([1]; dose 10 mg/kg)	Lowering rate non-HDL ([1]; dose 10 mg/kg)
29 nM	Cc1nc2c(c(C)c1CCC(=O)O)c1ccccc1n2Cc1ccc([C@@H](C(=O)N(C)C)C2CCOCC2)cc1 [Example 37, 3-(2,4-dimethyl-9-{4-[(S)-(dimethylcarbamoyl)(tetrahydro-2H-pyran-4-yl)methyl]benzyl}-9H-pyrido[2,3-b]indol-3-yl)propanoic acid]	57%	62%	0.71 mg/kg	0.71 mg/kg	–	–	–	–	–	–	–
–	Cc1nc2c(c(C)c1CCC(=O)O)c1ccc(F)cc1n2Cc1ccc([C@@H](C(=O)NCc2ccccc2)C2CCOCC2)cc1 [Example 24]	95%	96%	–	–	0.040 mg/kg	0.21 mg/kg	0.22 mg/kg	–	–	–	–
–	Cc1nc2c(c(C)c1CCC(=O)O)c1ccccc1n2Cc1ccc([C@@H](C(=O)N2CC=CCC2)C2CCOCC2)cc1 [Example 40]	81%	74%	–	–	<0.1 mg/kg	0.47 mg/kg	0.28 mg/kg	12 nM	–	–	–
3 nM	CCCN1CCN(C(=O)[C@H](c2ccc(Cn3c4ccccc4c4c(C)c(CCC(=O)O)c(C)nc43)cc2)C2CCOCC2)CC1 [Example 18, (+)-3-(2,4-Dimethyl-9-{4-[(S)-2-oxo-2-(4-propylpiperazin-1-yl)-1-(tetrahydro-2H-pyran-4-yl)ethyl]benzyl}-9H-pyrido[2,3-b]indol-3-yl)propanoic acid]	87%	85%	0.5 mg/kg	0.52 mg/kg	–	–	–	–	0.2 mg/kg	–	–
–	Cc1cc(C)c2c3ccccc3n(Cc3ccc([C@@H](C(=O)N[C@@H](CO)c4ccccc4)C4CCCC4)cc3)c2n1 [Implitapide, reference compound]	–	–	–	–	1.0 mg/kg	1.0 mg/kg	1.1 mg/kg	–	–	15%	14%
–	Cc1nc2c(c(C)c1CCC(=O)O)c1ccccc1n2Cc1ccc([C@@H](C(=O)N2CCC(c3ccccc3)CC2)C2CCOCC2)cc1 [Example 45]	92%	86%	–	–	0.41 mg/kg	–	–	28 nM	–	–	–
–	Cc1nc2c(c(C)c1CCC(=O)O)c1cc(F)ccc1n2Cc1ccc([C@@H](C(=O)NCc2ccccc2)C2CCOCC2)cc1 [Example 23]	96%	91%	–	–	0.063 mg/kg	0.27 mg/kg	0.19 mg/kg	–	–	–	–
–	Cc1nc2c(c(C)c1CCC(=O)O)c1ccccc1n2Cc1ccc([C@@H](C(=O)NCc2cccc(F)c2)C2CCOCC2)cc1 [Example 117]	98%	98%	–	–	0.032 mg/kg	–	–	2.2 nM	–	–	–
4.8 nM	Cc1nc2c(c(C)c1CCC(=O)O)c1ccccc1n2Cc1ccc([C@@H](C(=O)N2CCN(c3ccccn3)CC2)C2CCOCC2)cc1 [Example 17, (−)-3-(2,4-Dimethyl-9-{4-[(S)-2-oxo-2-(4-pyridin-2-ylpiperazin-1-yl)-1-(tetrahydro-2H-pyran-4-yl)ethyl]benzyl}-9H-pyrido[2,3-b]indol-3-yl)propanoic acid]	86%	85%	0.74 mg/kg	0.39 mg/kg	–	–	–	–	0.14 mg/kg	–	–
–	COCCCN1CCN(C(=O)[C@H](c2ccc(Cn3c4ccccc4c4c(C)c(CCC(=O)O)c(C)nc43)cc2)C2CCOCC2)CC1 [Example 56]	41%	63%	–	–	1.1 mg/kg	0.9 mg/kg	1.3 mg/kg	7.2 nM	–	–	–
–	CCCCCN1CCN(C(=O)[C@H](c2ccc(Cn3c4ccccc4c4c(C)c(CCC(=O)O)c(C)nc43)cc2)C2CCOCC2)CC1 [Example 50]	94%	90%	–	–	0.19 mg/kg	0.48 mg/kg	0.41 mg/kg	3.2 nM	–	–	–
1.7 nM	Cc1nc2c(c(C)c1CCC(=O)O)c1ccccc1n2Cc1ccc([C@@H](C(=O)NCc2ccccc2)C2CCOCC2)cc1 [Example 19, (−)-3-(9-{4-[(S)-(benzylcarbamoyl)(tetrahydro-2H-pyran-4-yl)methyl]benzyl}-2,4-dimethyl-9H-pyrido[2,3-b]indol-3-yl)propanoic acid]	91%	95%	0.17 mg/kg	0.24 mg/kg	–	–	–	–	0.059 mg/kg	–	–
–	Cc1nc2c(c(C)c1CCC(=O)O)c1ccccc1n2Cc1ccc([C@@H](C(=O)N2CCN(C3CCC3)CC2)C2CCOCC2)cc1 [Example 57]	89%	86%	–	–	0.88 mg/kg	0.74 mg/kg	0.56 mg/kg	8 nM	–	–	–
